Measured values taken from patent US10669240B2, “5-substituted indazole-3-carboxamides and preparation and use thereof” (Samumed, LLC, priority 2014, dated 2020).

Key:
Format in all cases: cell-based
[1] = test system: primary human mesenchymal stem cells (hMSCs); assay: Chondrogenesis assay in primary human mesenchymal stem cells, nodule count vs TGF-β3 positive control; settings: 6 days; for Conc (nM) of Max. activity: 6-point dose-response 2700 nM to 10 nM, dose at which maximum chondrogenesis activity was reached; for Max. Activity as % TGF-β3 activity: relative to TGF-β3 (10 ng/mL) positive control; for Conc (nM) of 100% TGF-β3 activity: concentration required to induce chondrogenesis equivalent to TGF-β3 (10 ng/mL)
Text: The above synthesized compounds were screened using primary human mesenchymal stem cells (hMSCs) to determine their ability to induce chondrogenesis (process by which cartilage is developed).
Human Mesenchymal Stem Cell Culture:
Primary human mesenchymal stem cells (hMSCs) were purchased from Lonza (Walkersville, Md.) and expanded in Mesenchymal Stem Cell Growth Media (Lonza). Cells between passage 3 and 6 were used for the experiments.
Number of nodules in each well was normalized to the average of 3 DMSO treated wells on the same plate using Excel (Microsoft Inc.). The normalized averages (fold change over DMSO) of 3 replicate wells for each compound concentration were calculated. Due to solubility limitations of some of the compounds, curve fitting was incomplete leading to inaccurate EC50 determinations.
Using TGF-β3 as a positive control, the concentration of test compounds required to induce equivalent levels of chondrogenesis is reported. In addition, the maximum activity of each compound and the respective dose that each compound reached maximum chondrogenesis activity is reported.

[2] = target: DYRK1A (Homo sapiens (Human), UniProt Q13627); assay: DYRK1A activity Tau assay: pSer396 Tau in SH-SY5Y cells by ELISA / western blot; settings: overnight (16-18 h) exposure
[3] = test system: Wnt activity (Wnt-responsive SP5 promoter luciferase reporter in SW480 cells); assay: Wnt activity reporter assay: SW480 cells with SP5 promoter-driven firefly luciferase; settings: Homo sapiens, 24 h after compound addition, read-out: Wnt inhibition
Summary of the method: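 SW480 cells (APC-mutant colon line) stably carrying a lentiviral SP5-promoter (eight TCF/LEF sites) firefly luciferase reporter were plated at ~10,000 cells/well. Luminescence was normalized to DMSO-only cells and used for IC50.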

| SMILES | EC50 [2] | Conc (nM) of Max. activity [1] | Max. Activity as % TGF-β3 activity [1] | Conc (nM) of 100% TGF-β3 activity [1] | IC50 [3] |
| --- | --- | --- | --- | --- | --- |
| O=C(NC1CCCCC1)c1n[nH]c2ccc(-c3cncc(N4CCCC4)c3)cc12 [Compound 200, N-Cyclohexyl-5-(5-(pyrrolidin-1-yl)pyridin-3-yl)-1H-indazole-3-carboxamide] | 58 nM | 2700 nM | 138% | 2700 nM |  |
| C#CCN1CCC(NC(=O)c2n[nH]c3ccc(-c4cccc(F)c4F)cc23)CC1 [Compound 367, 5-(2,3-Difluorophenyl)-N-(1-(prop-2-yn-1-yl)piperidin-4-yl)-1H-indazole-3-carboxamide] | 35 nM | 2700 nM | 65% |  |  |
| O=C(Nc1cccc2cccnc12)c1n[nH]c2ccc(-c3cncc(CN4CCCCC4)c3)cc12 [Compound 81, 5-(5-(Piperidin-1-ylmethyl)pyridin-3-yl)-N-(quinolin-8-yl)-1H-indazole-3-carboxamide] | 312 nM |  |  |  | 7660 nM |
| O=C(NCc1ccccc1)c1n[nH]c2ccc(-c3cc(F)cc(CN4CCCCC4)c3)cc12 [Compound 29, N-Benzyl-5-(3-fluoro-5-(piperidin-1-ylmethyl)phenyl)-1H-indazole-3-carboxamide] | 117 nM |  |  |  | 3470 nM |
| NC(=O)c1n[nH]c2ccc(-c3cncc(CN4CCCCC4)c3)cc12 [Compound 89, 5-(5-(Piperidin-1-ylmethyl)pyridin-3-yl)-1H-indazole-3-carboxamide] | 6 nM |  |  |  | 1960 nM |
| O=C(Nc1ccc(CN2CCCC2)cc1)c1n[nH]c2ccc(-c3cncc(Cl)c3)cc12 [Compound 1330, 5-(5-Chloropyridin-3-yl)-N-(4-(pyrrolidin-1-ylmethyl)phenyl)-1H-indazole-3-carboxamide] | 3 nM |  |  |  | 5500 nM |
| O=C(NC1CC1)c1n[nH]c2ccc(-c3cc(F)cc(CN4CCCCC4)c3)cc12 [Compound 11, N-Cyclopropyl-5-(3-fluoro-5-(piperidin-1-ylmethyl)phenyl)-1H-indazole-3-carboxamide] | 36 nM |  |  |  | 7950 nM |
| COc1ccc(NC(=O)c2n[nH]c3ccc(-c4cncc(N5CC(N)C5)n4)cc23)cn1 [Compound 1334, 5-(6-(3-Aminoazetidin-1-yl)pyrazin-2-yl)-N-(6-methoxypyridin-3-yl)-1H-indazole-3-carboxamide] | 2 nM |  |  |  | 1500 nM |
| CC(C)OCCCNC(=O)c1n[nH]c2ccc(-c3cccnc3)cc12 [Compound 1261, N-(3-Isopropoxypropyl)-5-(pyridin-3-yl)-1H-indazole-3-carboxamide] | 5 nM |  |  |  | 1000 nM |
| NC1CN(c2cncc(-c3ccc4[nH]nc(C(=O)Nc5cncc(-c6cccc(F)c6)c5)c4c3)n2)C1 [Compound 1344, 5-(6-(3-Aminoazetidin-1-yl)pyrazin-2-yl)-N-(5-(3-fluorophenyl)pyridin-3-yl)-1H-indazole-3-carboxamide] | 15 nM |  |  |  | 2930 nM |
| O=C(NC1CCC1)c1n[nH]c2ccc(-c3cccnc3)cc12 [Compound 5, N-Cyclobutyl-5-(pyridin-3-yl)-1H-indazole-3-carboxamide] | 18 nM |  |  |  | 11900 nM |
| Cc1cc2[nH]nc(C(=O)Nc3cccnc3)c2cc1-c1cccnc1 [Compound 44, 6-Methyl-N,5-di(pyridin-3-yl)-1H-indazole-3-carboxamide] | 23 nM |  |  |  | 6120 nM |

More lines, main results first:

| EC50 [2] | SMILES | Conc (nM) of Max. activity [1] | Max. Activity as % TGF-β3 activity [1] | Conc (nM) of 100% TGF-β3 activity [1] | IC50 [3] |
| --- | --- | --- | --- | --- | --- |
| 2200 nM | O=C(Nc1cccc2cccnc12)c1n[nH]c2ccc(-c3cccnc3)cc12 [Compound 43, 5-(Pyridin-3-yl)-N-(quinolin-8-yl)-1H-indazole-3-carboxamide] | 100 nM | 38% |  |  |
| 11 nM | CC(C)CN1CCC(NC(=O)c2n[nH]c3ccc(-c4cccnc4)cc23)CC1 [Compound 91, N-(1-Isobutylpiperidin-4-yl)-5-(pyridin-3-yl)-1H-indazole-3-carboxamide] | 2700 nM | 120% | 2700 nM |  |
| 2 nM | O=C(Nc1ccccn1)c1n[nH]c2cc(F)c(-c3cncc(CN4CCCCC4)c3)cc12 [Compound 1343, 6-Fluoro-5-(5-(piperidin-1-ylmethyl)pyridin-3-yl)-N-(pyridin-2-yl)-1H-indazole-3-carboxamide] | 2700 nM | 67% |  |  |
| 2 nM | O=C(Nc1ccc(N2CC(F)(F)C2)nc1)c1n[nH]c2ccc(-c3cncc(CN4CCCCC4)c3)cc12 [Compound 71, N-(6-(3,3-Difluoroazetidin-1-yl)pyridin-3-yl)-5-(5-(piperidin-1-ylmethyl)pyridin-3-yl)-1H-indazole-3-carboxamide] | 900 nM | 110% | 900 nM |  |
| 878 nM | O=C(Nc1cccnc1)c1n[nH]c2cc(F)c(-c3cccnc3)cc12 [Compound 99, 6-Fluoro-N,5-di(pyridin-3-yl)-1H-indazole-3-carboxamide] | 2700 nM | 64% |  |  |
| 2 nM | COc1cc(NC(=O)c2n[nH]c3ccc(-c4cncc(CN5CCCCC5)c4)cc23)ccn1 [Compound 78, N-(2-Methoxypyridin-4-yl)-5-(5-(piperidin-1-ylmethyl)pyridin-3-yl)-1H-indazole-3-carboxamide] | 900 nM | 79% |  |  |
| 1 nM | Cc1ncc(NC(=O)c2n[nH]c3ccc(-c4cncc(CN5CCCCC5)c4)cc23)cn1 [Compound 98, N-(2-Methylpyrimidin-5-yl)-5-(5-(piperidin-1-ylmethyl)pyridin-3-yl)-1H-indazole-3-carboxamide] | 2700 nM | 161% | 2700 nM |  |
| 38 nM | O=C(Nc1ccnc(C(F)(F)F)c1)c1n[nH]c2ccc(-c3cccnc3)cc12 [Compound 45, 5-(Pyridin-3-yl)-N-(2-(trifluoromethyl)pyridin-4-yl)-1H-indazole-3-carboxamide] | 900 nM | 114% | 900 nM |  |
| 15 nM | CC(C)N1CCC(NC(=O)c2n[nH]c3ccc(-c4cccnc4)cc23)CC1 [Compound 90, N-(1-Isopropylpiperidin-4-yl)-5-(pyridin-3-yl)-1H-indazole-3-carboxamide] | 2700 nM | 169% | 2700 nM |  |
| 42 nM | CC(C)NC(=O)c1n[nH]c2ccc(-c3cncc(CN4CCCC4)c3)cc12 [Compound 129, N-Isopropyl-5-(5-(pyrrolidin-1-ylmethyl)pyridin-3-yl)-1H-indazole-3-carboxamide] | 2700 nM | 108% | 2700 nM |  |
| 1 nM | O=C(Nc1cccnc1)c1n[nH]c2cc(F)c(-c3cncc(CN4CCCCC4)c3)cc12 [Compound 1153, 6-Fluoro-5-(5-(piperidin-1-ylmethyl)pyridin-3-yl)-N-(pyridin-3-yl)-1H-indazole-3-carboxamide] | 2700 nM | 146% | 900 nM |  |
